# Earlier results, collected in US7553503B2, “Phyto-nutraceutical synergistic composition for Parkinson's Disease” (priority 2006, dated 2009).
# Key:
# substantia nigra neurons = settings: MPTP-induced
# [1] = tested on: patients with tardive dyskinesia; settings: especially tardive dyskinesia for 5 years or less
# [2] = tested on: alpha 1-adrenergic receptors
# [3] = tested on: alpha 2-adrenergic receptors
# dopamine D2 receptors = dopamine D2 receptors (Homo sapiens, UniProt P14416)
# [4] = tested on: dopamine and DOPAC in striatum, DA in hypothalamus; settings: after administration
# dopamine D1 receptors = dopamine D1 receptors (Homo sapiens, UniProt P21728)
# ischemic brain injury = settings: transient focal ischemia
# [5] = tested on: brain mitochondria and membranes
# [6] = tested on: bacterial resistance mechanism (multidrug pump); settings: in vitro, with 5'-methoxyhydnocarpin
# mouse brain = settings: pretreatment
# [7] = tested on: HIV-1 viral long terminal repeat-directed gene expression
# [8] = tested on: patients with early-stage Parkinson's disease
# Chain of dopamine D1 receptors (P21728 whole entry): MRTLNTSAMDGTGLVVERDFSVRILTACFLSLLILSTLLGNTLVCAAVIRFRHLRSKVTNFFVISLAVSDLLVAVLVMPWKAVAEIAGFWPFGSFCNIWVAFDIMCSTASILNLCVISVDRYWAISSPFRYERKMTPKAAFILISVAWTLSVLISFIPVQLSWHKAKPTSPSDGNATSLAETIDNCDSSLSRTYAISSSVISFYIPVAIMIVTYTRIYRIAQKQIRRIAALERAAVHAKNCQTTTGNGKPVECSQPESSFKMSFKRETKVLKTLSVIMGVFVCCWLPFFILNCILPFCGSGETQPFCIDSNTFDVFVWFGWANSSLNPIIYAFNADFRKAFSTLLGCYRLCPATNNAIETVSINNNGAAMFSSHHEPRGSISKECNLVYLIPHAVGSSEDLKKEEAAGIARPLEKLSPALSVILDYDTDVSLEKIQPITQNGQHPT
# Chain of dopamine D2 receptors (P14416 whole entry): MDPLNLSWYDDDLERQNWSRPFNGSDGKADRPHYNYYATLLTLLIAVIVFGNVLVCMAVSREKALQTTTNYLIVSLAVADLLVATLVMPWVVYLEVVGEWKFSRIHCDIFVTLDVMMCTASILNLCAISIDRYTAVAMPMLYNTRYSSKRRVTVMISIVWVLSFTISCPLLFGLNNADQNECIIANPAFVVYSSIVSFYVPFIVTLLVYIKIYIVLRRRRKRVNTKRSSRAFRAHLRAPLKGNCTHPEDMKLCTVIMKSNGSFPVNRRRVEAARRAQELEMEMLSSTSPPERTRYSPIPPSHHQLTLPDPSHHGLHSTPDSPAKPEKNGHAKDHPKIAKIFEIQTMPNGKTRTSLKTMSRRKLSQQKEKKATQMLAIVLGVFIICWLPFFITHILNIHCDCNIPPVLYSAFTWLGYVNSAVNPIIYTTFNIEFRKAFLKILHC
molecule,measurement,setting,value
CC(C)=CCC[C@](C)(O[C@@H]1O[C@H](CO)[C@@H](O)[C@H](O)[C@H]1O)[C@H]1CC[C@]2(C)[C@@H]1[C@H](O)C[C@@H]1[C@@]3(C)CC[C@H](O)C(C)(C)[C@@H]3[C@@H](O[C@@H]3O[C@H](CO)[C@@H](O)[C@H](O)[C@H]3O)C[C@]12C [Ginsenoside Rg1],substantia nigra neurons loss,substantia nigra neurons,protect against substantia nigra neurons loss
Vitamin E,severity of tardive dyskinesia,[1],appears to be effective
COc1cc2c(c(OC)c1OC)-c1c(cc(OC)c(OC)c1OC)C[C@](C)(O)[C@@H](C)C2 [schizandrol A],affinity for alpha 1-adrenergic receptors,[2],no affinity
same,affinity for alpha 2-adrenergic receptors,[3],no affinity
same,affinity for dopamine D2 receptors,dopamine D2 receptors,no affinity
same,dopamine and its metabolite DOPAC (in striatum) and DA (in hypothalamus),[4],Significant elevations
same,affinity for dopamine D1 receptors,dopamine D1 receptors,no affinity
same,affinity for serotonin receptors,serotonin receptors,no affinity
CC(C)(O)[C@@H]1CC[C@](C)([C@H]2[C@@H](O)C[C@@]3(C)[C@@H]4C[C@H](O[C@@H]5O[C@H](CO)[C@@H](O)[C@H](O)[C@H]5O)[C@H]5C(C)(C)[C@@H](O[C@@H]6OC[C@@H](O)[C@H](O)[C@H]6O)CC[C@@]56C[C@@]46CC[C@]23C)O1 [Astragaloside IV],infarct volume,ischemic brain injury,markedly and significantly reduced
COc1cc2c(c(OC)c1OC)-c1c(cc(OC)c(OC)c1OC)C[C@](C)(O)[C@@H](C)C2 [Schizandrin],potency of protective action against oxidative stress relative to Schisanhenol,[5],weaker than that of Schisanhenol
COc1cc2c(c(O)c1OC)-c1c(cc(OC)c(OC)c1OC)C[C@@H](C)[C@@H](C)C2 [Schisanhenol],peroxidative damages of brain mitochondria and membranes,[5],completely inhibited
COc1ccc2cc3[n+](cc2c1OC)CCc1cc2c(cc1-3)OCO2 [Berberine],activity of Berberine alkaloids in the presence of 5'-MHC,[6],strongly potentiated
COc1cc2c(c(OC)c1OC)-c1c(cc3c(c1OC)OCO3)CC(C)C(C)C2 (stereo not drawn) [Schizandrins B],extent of lipid peroxidation in brain tissue,mouse brain,dose-dependent decrease
CC1(C)CCC2=C(O1)c1ccccc1C(=O)C2=O [Beta-lapachone],inhibition of HIV-1 viral long terminal repeat-directed gene expression,[7],potent and selective inhibitor
"COC1=C(OC)C(=O)C(C/C=C(\C)CC/C=C(\C)CC/C=C(\C)CC/C=C(\C)CC/C=C(\C)CC/C=C(\C)CC/C=C(\C)CC/C=C(\C)CC/C=C(\C)CCC=C(C)C)=C(C)C1=O [coenzyme Q10, Coenzyme Q10]",disease progression,[8],can slow disease progression
